From US10208033B2, “β-carboline, dihydro-β-carboline and tetrahydro-β-carboline alkaloid derivatives and preparation methods same and use in aspects of preventing and treating plant viruses, fungicides and insecticides” (NANKAI UNIVERSITY, priority 2013, dated 2019)
Structures can show the parent of a compound that is named as a salt.

Legend:
Rhizoctonia solani = test: Fungicidal (bactericidal) activity in vitro, PDA colony diameter; format: cell-based
Fusarium graminearumt = test: microbe, parasite or virus in culture; format: cell-based; settings: 50 mg/kg
Phytophthora capsici = test: Fungicidal (bactericidal) activity in vitro, PDA colony diameter; format: cell-based
cucumber fusarium wilt = test: as above; format: cell-based
Rhizoctonia cereali = test: as above; format: cell-based
Fusarium fujikuroi = test: as above; format: cell-based
potato late blight = test: microbe, parasite or virus in culture; format: cell-based
Botrytis cinerea = test: Fungicidal (bactericidal) activity in vitro, PDA colony diameter; format: cell-based
corn borers = settings: in vivo
Macrophoma kawatsukai = test: Fungicidal (bactericidal) activity in vitro, PDA colony diameter; format: cell-based
[1] = test system: Colletotrichum orbiculare; test: as above; format: cell-based
armyworms = format: in vivo; settings: concentration 600 mg/kg
Cercospora arachidicola = test: Fungicidal (bactericidal) activity in vitro, PDA colony diameter; format: cell-based
cotton bollworms = test: whole plant or invertebrate; settings: in vivo
Protocol: Experimental method of cotton bollworms: feed and drug mixing method: measure 3 mL of prepared solution and add it to about 27 g of newly prepared feed, thereby obtaining needed concentration through dilution by 10 times.

mosquito larvae = test: whole plant or invertebrate; settings: in vivo
Protocol: Experimental method of mosquito larvae: culex pipiens pallens, a normal colony raised indoors. Weigh about 5 mg of the compound for test, put it in a penicillin vial, add 5 mL of acetone (or an appropriate solvent), and shake and dissolve it to obtain a 1000 ppm mother solution. Pipette 0.5 mL of the mother solution, add it to a 100 mL beaker filled with 89.9 mL of water, select 10 mosquito larvae at the beginning of the fourth instar, and pour them to a beaker together with 10 mL of feeding solution. The concentration of the drug solution is 5 ppm. […] Use an aqueous solution containing 0.5 mL of test solvent as a blank.

Alternaria solani = test: Fungicidal (bactericidal) activity in vitro, PDA colony diameter; format: cell-based
Bipolaria maydis = test: organism not typed; format: cell-based; settings: 50 mg/kg
Sclerotinia scleotiorum = test: Fungicidal (bactericidal) activity in vitro, PDA colony diameter; format: cell-based
[2] = test system: tobacco mosaic virus (TMV); test: Anti-TMV in vitro effect (half-leaf soaking); format: cell-based, tobacco mosaic virus (host Nicotiana tabacum L.cv.Xanthi NN); settings: for inhibition at 100 µg/mL / inhibition at 500 µg/mL: Tobacco mosaic virus, read-out: Relative inhibition rate (%) In vitro activity
[3] = test system: tobacco mosaic virus (TMV); test: Anti-TMV in vivo protective effect; parameters: species or system tobacco mosaic virus (host Nicotiana tabacum L.cv.Xanthi NN); settings: for inhibition at 100 µg/mL / inhibition at 500 µg/mL: Tobacco mosaic virus, read-out: Relative inhibition rate (%) In vivo protection
[4] = test system: tobacco mosaic virus (TMV); test: Anti-TMV in vivo therapeutic effect; parameters: species or system tobacco mosaic virus (host Nicotiana tabacum L.cv.Xanthi NN); settings: for inhibition at 100 µg/mL / inhibition at 500 µg/mL: Tobacco mosaic virus, read-out: Relative inhibition rate (%) In vivo therapy
[5] = test system: tobacco mosaic virus (TMV); test: Anti-TMV in vivo inactivation; parameters: species or system tobacco mosaic virus (host Nicotiana tabacum L.cv.Xanthi NN); settings: for inhibition at 100 µg/mL / inhibition at 500 µg/mL: Tobacco mosaic virus, read-out: Relative inhibition rate (%) In vivo inactivation

CCOC(=O)[C@@H]1Cc2c([nH]c3ccccc23)[C@H](c2cccnc2)N1 [Ib-11, (1S, 3S)-1-(pyridine-3)-2,3,4,9-tetrahydropyridino [3,4-b] indol-3-ethyl formate]
Bactericidal activity (%) Rhizoctonia solani (Rhizoctonia solani): 17.9%
Bactericidal activity (%) Fusarium graminearumt (Fusarium graminearumt): 28.6%
Bactericidal activity (%) Phytophthora capsici (Phytophthora capsici): 36.4%
Bactericidal activity (%) Cucumber fusarium wilt (cucumber fusarium wilt): 23.8%
Bactericidal activity (%) Rhizoctonia cereali (Rhizoctonia cereali): 65.6%
Bactericidal activity (%) Fusarium fujikuroi (Fusarium fujikuroi): 28.6%
Bactericidal activity (%) potato late blight (potato late blight): 35.0%
Bactericidal activity (%) Botrytis cinerea (Botrytis cinerea): 40.9%
Corn borer Mortality (%) (corn borers): 5%
Bactericidal activity (%) Macrophoma kawatsukai (Macrophoma kawatsukai): 35.3%
Bactericidal activity (%) Colletotrichum orbiculare [1]: 42.9%
Armyworm Mortality (%) (armyworms): 5%
Bactericidal activity (%) Cercospora arachidicola (Cercospora arachidicola): 42.9%
Cotton bollworm Mortality (%) (cotton bollworms): 20%
Mosquito larvae Mortality (%) (mosquito larvae): 15%
Bactericidal activity (%) Alternaria solani (Alternaria solani): 55.6%
Bactericidal activity (%) Bipolaria maydis (Bipolaria maydis): 15.8%
Bactericidal activity (%) Sclerotinia scleotiorum (Sclerotinia scleotiorum): 76.0%

COc1cc2c3c(c4cc(OC)c(OC)cc4c2cc1OC)CN1CCC[C@H]1C3.O=C(O)C[C@@H](O)C(=O)O [NK-007, reference compound]
Relative inhibition rate (%) In vitro activity ([2]; treatment dose 100 μg/mL): 38.7%
Relative inhibition rate (%) In vitro activity ([2]; treatment dose 500 μg/mL): 65.4%
Relative inhibition rate (%) In vivo protection ([3]; treatment dose 100 μg/mL): 36.2%
Relative inhibition rate (%) In vivo protection ([3]; treatment dose 500 μg/mL): 67.9%
Relative inhibition rate (%) In vivo therapy ([4]; treatment dose 100 μg/mL): 34.9%
Relative inhibition rate (%) In vivo therapy ([4]; treatment dose 500 μg/mL): 67.2%
Relative inhibition rate (%) In vivo inactivation ([5]; treatment dose 100 μg/mL): 33.9%
Relative inhibition rate (%) In vivo inactivation ([5]; treatment dose 500 μg/mL): 65.2%

CNCC(=O)N[C@@H](CO)C(=O)N[C@H]1[C@H](O)[C@@H](O)[C@H](n2ccc(N)nc2=O)O[C@@H]1C(N)=O [Ningnanmycin, reference compound]
inhibition at 100 µg/mL ([2]; treatment dose 100 μg/mL): 26.8%
inhibition at 500 µg/mL ([2]; treatment dose 500 μg/mL): 73.3%
inhibition at 100 µg/mL ([3]; treatment dose 100 μg/mL): 23.1%
inhibition at 500 µg/mL ([3]; treatment dose 500 μg/mL): 65.4%
inhibition at 100 µg/mL ([4]; treatment dose 100 μg/mL): 20%
inhibition at 500 µg/mL ([4]; treatment dose 500 μg/mL): 54.2%
inhibition at 100 µg/mL ([5]; treatment dose 100 μg/mL): 38.4%
inhibition at 500 µg/mL ([5]; treatment dose 500 μg/mL): 68%

NC(=O)c1ncn([C@@H]2O[C@H](CO)[C@@H](O)[C@H]2O)n1 [Virazole, reference compound]
inhibition at 100 µg/mL ([2]; treatment dose 100 μg/mL): 15.3%
inhibition at 500 µg/mL ([2]; treatment dose 500 μg/mL): 39.5%
inhibition at 100 µg/mL ([3]; treatment dose 100 μg/mL): 16.2%
inhibition at 500 µg/mL ([3]; treatment dose 500 μg/mL): 37.6%
inhibition at 100 µg/mL ([4]; treatment dose 100 μg/mL): 11.9%
inhibition at 500 µg/mL ([4]; treatment dose 500 μg/mL): 35.4%
inhibition at 100 µg/mL ([5]; treatment dose 100 μg/mL): 12.9%
inhibition at 500 µg/mL ([5]; treatment dose 500 μg/mL): 36.3%
